Experimental data published in patent EP2351737A1, “3-Amino-1-arylpropyl indoles and aza-substituted indoles” (F. Hoffmann-La Roche AG, priority 2005, dated 2007).

Assays:
[1] = molecular target: T1, Human Serotonin Transporter (hSERT) (Homo sapiens, UniProt P31645); experiment: Human Serotonin Transporter (hSERT) Scintillation Proximity Assay (SPA), competition with [3H]-Citalopram; type: binding; conditions: membranes of HEK-293 cells expressing recombinant hSERT, Ki by Cheng-Prusoff; for Ki: read-out: pKi SERT (converted)
T1 construct: expressed in transfected cells; membranes prepared from them
T1 sequence (P31645 whole entry): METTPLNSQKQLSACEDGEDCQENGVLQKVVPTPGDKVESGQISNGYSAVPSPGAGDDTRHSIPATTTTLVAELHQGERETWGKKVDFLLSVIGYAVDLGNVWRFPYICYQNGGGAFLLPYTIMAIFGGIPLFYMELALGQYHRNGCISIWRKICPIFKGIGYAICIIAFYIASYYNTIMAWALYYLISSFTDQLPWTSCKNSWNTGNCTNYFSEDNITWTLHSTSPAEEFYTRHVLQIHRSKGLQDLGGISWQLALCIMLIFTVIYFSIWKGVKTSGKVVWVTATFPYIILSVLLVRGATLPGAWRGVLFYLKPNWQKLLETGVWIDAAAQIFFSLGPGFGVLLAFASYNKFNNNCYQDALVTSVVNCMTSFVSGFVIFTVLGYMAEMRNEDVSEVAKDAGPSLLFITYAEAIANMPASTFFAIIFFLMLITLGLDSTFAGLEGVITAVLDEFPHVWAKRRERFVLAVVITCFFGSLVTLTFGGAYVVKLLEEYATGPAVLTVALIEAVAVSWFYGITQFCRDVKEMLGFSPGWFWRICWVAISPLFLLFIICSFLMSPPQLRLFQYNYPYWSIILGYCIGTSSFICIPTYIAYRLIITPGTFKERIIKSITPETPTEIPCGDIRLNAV
Source text: Screening for Human Serotonin Transporter (hSERT) Antagonists Using a Scintillation Proximity Assay (SPA)
Scintillation Proximity Assay (SPA) works by bringing radioligand within close proximity to the bead's scintillant to stimulate light emission. […] Unbound radioligand produced no signal as a result of distant proximity to scintillant (lack of energy transfer).

[2] = molecular target: Human Norepinephrine Transporter (hNET) (Homo sapiens, UniProt P23975); experiment: Human Norepinephrine Transporter (hNET) Scintillation Proximity Assay (SPA), competition with [3H]-Nisoxetine; conditions: membranes of HEK-293 cells expressing recombinant hNET, Ki by Cheng-Prusoff; for Ki: pKi NET
Sequence of Human Norepinephrine Transporter (hNET) (P23975 whole entry): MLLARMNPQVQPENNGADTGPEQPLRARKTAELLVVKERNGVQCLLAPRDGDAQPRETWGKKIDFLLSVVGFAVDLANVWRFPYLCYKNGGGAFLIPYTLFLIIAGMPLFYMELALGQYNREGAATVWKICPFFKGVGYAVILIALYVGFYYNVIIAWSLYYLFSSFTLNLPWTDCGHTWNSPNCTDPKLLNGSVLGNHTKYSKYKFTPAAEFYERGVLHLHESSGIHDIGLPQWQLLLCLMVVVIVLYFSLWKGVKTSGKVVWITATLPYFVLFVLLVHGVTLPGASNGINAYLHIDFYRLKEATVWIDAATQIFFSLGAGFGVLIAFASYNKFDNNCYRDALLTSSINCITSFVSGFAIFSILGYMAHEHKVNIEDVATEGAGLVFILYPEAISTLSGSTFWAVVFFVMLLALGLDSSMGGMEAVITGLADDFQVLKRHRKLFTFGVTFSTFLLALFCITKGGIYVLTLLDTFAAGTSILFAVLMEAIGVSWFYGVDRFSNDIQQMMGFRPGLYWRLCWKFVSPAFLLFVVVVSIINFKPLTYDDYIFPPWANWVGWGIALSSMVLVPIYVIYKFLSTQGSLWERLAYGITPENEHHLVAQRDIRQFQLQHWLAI

| Compound | Ki [1] [nM] | Ki [2] [nM] | pKi SERT [1] | pKi NET [2] |
| --- | --- | --- | --- | --- |
| CNCCC(c1ccccc1)c1cc(Cl)c2[nH]ncc2c1 (stereo not shown) [Compound 77, [3-(7-Chloro-1H-indazol-5-yl)-3-phenyl-propyl]-methyl-amine] | 9.12 | 5.5 | – | – |
| CNCCC(c1ccccc1)c1ccc2[nH]nc(OCC3CC3)c2c1 (stereo not shown) [Compound 81, [3-(3-Cyclopropylmethoxy-1H-indazol-5-yl)-3-phenyl-propyl]-methyl-amine] | 56.2 | 214 | – | – |
| 5-[1-(1H-Indol-5-yl)-3-methylamino-propyl]-1H-indole-3-carbonitrile [Compound 122] | – | – | 9.24 | 7.7 |
| CNCCC(c1ccccc1)c1ccc2[nH]ccc2c1F (stereo not shown) [Compound 97, [3-(4-Fluoro-1H-indol-5-yl)-3-phenyl-propyl]-methyl-amine] | 9.33 | 17 | – | – |
| [3-(7-Fluoro-1H-indol-5-yl)-3-(3-fluoro-phenyl)-propyl]-methyl-amine [Compound 93] | – | – | 7.76 | 8.41 |
| 5-(3-Methylamino-1-phenyl-propyl)-1H-indole-3-carboxylic acid methylamide [Compound 129] | – | – | 7.18 | 7.72 |
| CN(C)CCC(c1ccccc1)c1ccc2[nH]ccc2c1 (stereo not shown) [Compound 113, [3-(1H-Indol-5-yl)-3-phenyl-propyl]-dimethyl-amine] | 178 | 83.2 | – | – |
| CNCCC(c1ccccc1)c1ccc2[nH]cc(S(=O)(=O)N(C)C)c2c1 (stereo not shown) [Compound 90, 5-(3-Methylamino-1-phenyl-propyl)-1H-indole-3-sulfonic acid dimethylamide] | 38 | 240 | – | – |
| [3-(7-Fluoro-1H-indol-5-yl)-3-(4-fluoro-phenyl)-propyl]-methyl-amine [Compound 94] | – | – | 7.75 | 8.0 |
| CNCC[C@H](c1ccccc1)c1cc(Cl)c2[nH]ncc2c1 [Compound 84, [3-(7-Chloro-1H-indazol-5-yl)-3-(R)-phenyl-propyl]-methyl-amine] | 5.89 | 7.76 | – | – |
| CNCCC(c1ccc2[nH]ccc2c1)c1nc2ccccc2s1 (stereo not shown) [Compound 140, [3-Benzothiazol-2-yl-3-(1H-indol-5-yl)-propyl]-methyl-amine] | 11.2 | 9.33 | – | – |
| CNCCC(c1ccccc1)c1ccc2occc2c1 (stereo not shown) [Compound 142, (3-Benzofuran-5-yl-3-phenyl-propyl)-methyl-amine] | 10.7 | 10.5 | – | – |
| NCCC(c1ccc2[nH]ccc2c1)c1ccc2[nH]ccc2c1 [Compound 119, 3,3-Bis-(1H-indol-5-yl)-propylamine] | 72.4 | 11.5 | – | – |
| [3-(7-Methoxy-1H-indol-5-yl)-3-phenyl-propyl]-methyl-amine [Compound 22] | – | – | 7.66 | 8.39 |
| CNCCC(c1ccc2[nH]ccc2c1)c1ccc2cc[nH]c2c1 (stereo not shown) [Compound 117, [3-(1H-Indol-6-yl)-3-(1H-indol-5-yl)-propyl]-methyl-amine] | 8.91 | 5.89 | – | – |
| CNCC[C@@H](c1ccccc1)c1cc(OC)c2[nH]ncc2c1 [Compound 82, [3-(7-Methoxy-1H-indazol-5-yl)-3-(S)-phenyl-propyl]-methyl-amine] | 3.72 | 2.63 | – | – |
| 7-Fluoro-5-(3-methylamino-1-(S)-phenyl-propyl)-1H-indole-3-carbonitrile [Compound 104] | – | – | 8.1 | 7.49 |
| CNCC[C@@H](c1ccccc1)c1ccc2[nH]nc(Cl)c2c1 [Compound 60, [(S)-3-(3-Chloro-1H-indazol-5-yl)-3-phenyl-propyl]-methyl-amine] | 8.51 | 40.7 | – | – |
| [3-(1H-Indol-5-yl)-3-quinolin-6-yl-propyl]-methyl-amine [Compound 112] | – | – | 8.67 | 7.5 |
| CNCCC(c1ccccc1)c1cc(OC)c2[nH]ncc2c1 (stereo not shown) [Compound 75, [3-(7-Methoxy-1H-indazol-5-yl)-3-phenyl-propyl]-methyl-amine] | 5.62 | 6.61 | – | – |
| CNCCC(c1ccccc1)c1ccc2[nH]c(C#N)cc2c1 (stereo not shown) [Compound 128, 5-(3-Methylamino-1-phenyl-propyl)-1H-indole-2-carbonitrile] | 1.02 | 57.5 | – | – |
| CNCCC(c1ccccc1)c1ccc2[nH]c(C(N)=O)cc2c1 (stereo not shown) [Compound 24, 5-(3-Methylamino-1-phenyl-propyl)-1H-indole-2-carboxylic acid amide] | 70.8 | 2.88 | – | – |
| CCOc1n[nH]c2ccc(C(CCNC)c3ccccc3)cc12 (stereo not shown) [Compound 79, [3-(3-Ethoxy-1H-indazol-5-yl)-3-phenyl-propyl]-methyl-amine] | 26.9 | 132 | – | – |
| CNCCC(c1ccccc1)c1ccc2[nH]cc(C(=O)N(C)C)c2c1 (stereo not shown) [Compound 92, 5-(3-Methylamino-1-phenyl-propyl)-1H-indole-3-carboxylic acid dimethylamide] | 35.5 | 316 | – | – |
| CNCCC(c1ccccc1)c1ccc2occc2c1 (stereo not shown) [Compound 141, (3-Benzofuran-5-yl-3-phenyl-propyl)-methyl-amine] | 22.4 | 10.7 | – | – |
| CNCCC(c1ccccc1)c1cc(OC)c2cc[nH]c2c1 (stereo not shown) [Compound 30] | – | – | 9.06 | 7.63 |
| [3-(7-Fluoro-1H-indol-5-yl)-3-(2-methoxy-phenyl)-propyl]-methyl-amine [Compound 101] | – | – | 7.24 | 7.58 |
| CNCCC(c1ccccc1)c1ccc2[nH]nc(C)c2c1 (stereo not shown) [Compound 58, Methyl-[3-(3-methyl-1H-indazol-5-yl)-3-phenyl-propyl]-amine] | 42.7 | 191 | – | – |
| [3-(4-Methoxy-1H-indol-5-yl)-3-phenyl-propyl]-methyl-amine [Compound 88] | – | – | 7.28 | 7.03 |
